Experimental data from the NIST ThermoML archive (doi:10.1021/acs.jced.9b00001).
Several values for one entry are separate records, joined by “and”; a condition that tells them apart may be missing. Identical values can stand only once.

Settings: Liquid, Closed cell (Static) method

FC(F)(F)/C=C/Cl [(E)-1-chloro-3,3,3-trifluoroprop-1-ene]
Settings | vapor or sublimation pressure
253.17 K | 17.85 kPa
257.16 K | 22.05 kPa
260.17 K | 25.84 kPa
263.21 K | 30.13 kPa
267.04 K | 36.26 kPa and 36.26 kPa
270.14 K | 41.85 kPa
273.14 K | 47.91 kPa
277.11 K | 57.02 kPa
280.14 K | 64.83 kPa
283.09 K | 73.21 kPa
287.12 K | 86.04 kPa
290.14 K | 96.6 kPa
290.16 K | 96.73 kPa
293.09 K | 108.04 kPa
293.17 K | 108.4 kPa
297.15 K | 125.37 kPa
297.16 K | 125.42 kPa
300.15 K | 139.48 kPa
303.16 K | 154.83 kPa
307.16 K | 177.3 kPa
310.15 K | 195.73 kPa
313.15 K | 215.48 kPa
317.16 K | 244.36 kPa
320.16 K | 267.95 kPa
323.15 K | 293.08 kPa
323.25 K | 293.99 kPa
323.36 K | 295.01 kPa
327.16 K | 329.62 kPa
330.15 K | 359.02 kPa
333.14 K | 390.34 kPa and 390.35 kPa
333.15 K | 390.53 kPa
337.15 K | 435.75 kPa
340.15 K | 472.19 kPa
343.13 K | 510.48 kPa
343.15 K | 510.8 kPa and 510.94 kPa
343.19 K | 511.2 kPa
347.15 K | 566.08 kPa
350.16 K | 610.55 kPa
353.18 K | 657.68 kPa and 657.72 kPa
353.19 K | 657.8 kPa and 657.95 kPa
357.16 K | 724.03 kPa
360.16 K | 777.18 kPa
363.17 K | 833.48 kPa
363.2 K | 834.12 kPa
363.23 K | 834.57 kPa and 835.18 kPa
367.17 K | 913.02 kPa
370.17 K | 976.1 kPa
373.17 K | 1042.6 kPa and 1043.1 kPa
373.19 K | 1043.2 kPa and 1043.3 kPa
377.15 K | 1136.1 kPa
380.15 K | 1210.4 kPa
383.2 K | 1289.7 kPa
383.21 K | 1289.9 kPa
383.22 K | 1290.5 kPa and 1290.6 kPa
387.16 K | 1398.3 kPa
390.15 K | 1484.8 kPa
393.17 K | 1576.2 kPa
393.2 K | 1577.7 kPa
393.21 K | 1577.4 kPa and 1578 kPa
397.18 K | 1704 kPa
397.22 K | 1705.7 kPa
400.23 K | 1806.9 kPa
400.24 K | 1806.7 kPa
403.14 K | 1908.4 kPa
403.15 K | 1909 kPa
403.22 K | 1911.4 kPa and 1911.9 kPa
403.26 K | 1912.9 kPa
407.13 K | 2055.5 kPa
408.25 K | 2098.3 kPa
410.17 K | 2173.3 kPa
413.1 K | 2291.7 kPa
413.18 K | 2294.5 kPa
413.19 K | 2294.6 kPa and 2295.1 kPa and 2294.9 kPa
417.18 K | 2463.9 kPa
418.23 K | 2510.4 kPa
420.13 K | 2595.8 kPa
423.15 K | 2735.4 kPa and 2736 kPa
423.18 K | 2737.1 kPa
423.19 K | 2737.5 kPa
427.19 K | 2932.7 kPa
430.25 K | 3090.6 kPa
